Laboratory results published in the NIST ThermoML archive (doi:10.1016/j.jct.2009.11.014).

Settings: Liquid; for mass density: vibrating tube; for viscosity: Stony Brook Scientific falling needle HPHTV-100 viscometer

CCCCn1cc[n+](C)c1.F[B-](F)(F)F [1-butyl-3-methylimidazolium tetrafluoroborate]
Settings | mass density [kg/m3] | viscosity [mPa·s]
283.15 K, 100 kPa | 1212.53 | –
283.15 K, 2000 kPa | 1213.37 | –
283.15 K, 4000 kPa | 1214.24 | –
283.15 K, 6000 kPa | 1215.13 | –
283.15 K, 8000 kPa | 1216 | –
283.15 K, 10000 kPa | 1216.89 | –
283.15 K, 12000 kPa | 1217.77 | –
283.15 K, 14000 kPa | 1218.63 | –
283.15 K, 20000 kPa | 1221.2 | –
283.15 K, 30000 kPa | 1225.42 | –
283.15 K, 40000 kPa | 1229.49 | –
283.15 K, 50000 kPa | 1233.46 | –
283.15 K, 60000 kPa | 1237.32 | –
285.05 K, 110 kPa | – | 197.8
285.05 K, 14190 kPa | – | 236.6
285.15 K, 110 kPa | – | 197.5
285.15 K, 660 kPa | – | 197.8
285.15 K, 1660 kPa | – | 200.2
285.15 K, 2660 kPa | – | 202.7
285.15 K, 4070 kPa | – | 206.4
285.15 K, 6100 kPa | – | 211
285.15 K, 8180 kPa | – | 215.4
285.15 K, 10150 kPa | – | 220.7
285.15 K, 12050 kPa | – | 226.1
288.15 K, 100 kPa | 1208.87 | –
288.15 K, 2000 kPa | 1209.73 | –
288.15 K, 4000 kPa | 1210.65 | –
288.15 K, 6000 kPa | 1211.56 | –
288.15 K, 8000 kPa | 1212.45 | –
288.15 K, 10000 kPa | 1213.34 | –
288.15 K, 12000 kPa | 1214.22 | –
288.15 K, 14000 kPa | 1215.09 | –
288.15 K, 20000 kPa | 1217.71 | –
288.15 K, 30000 kPa | 1221.96 | –
288.15 K, 40000 kPa | 1226.06 | –
288.15 K, 50000 kPa | 1230.05 | –
288.15 K, 60000 kPa | 1233.94 | –
293.15 K, 100 kPa | 1205.25 | –
293.15 K, 2000 kPa | 1206.11 | –
293.15 K, 4000 kPa | 1207.04 | –
293.15 K, 6000 kPa | 1207.96 | –
293.15 K, 8000 kPa | 1208.85 | –
293.15 K, 10000 kPa | 1209.74 | –
293.15 K, 12000 kPa | 1210.69 | –
293.15 K, 14000 kPa | 1211.59 | –
293.15 K, 20000 kPa | 1214.19 | –
293.15 K, 30000 kPa | 1218.46 | –
293.15 K, 40000 kPa | 1222.59 | –
293.15 K, 50000 kPa | 1226.61 | –
293.15 K, 60000 kPa | 1230.53 | –
293.85 K, 120 kPa | – | 125.5
293.85 K, 710 kPa | – | 126.4
293.85 K, 1690 kPa | – | 127.1
293.85 K, 2640 kPa | – | 128.5
293.85 K, 4150 kPa | – | 130.9
293.85 K, 6130 kPa | – | 132.7
293.85 K, 8200 kPa | – | 134.9
293.85 K, 10200 kPa | – | 137.4
293.85 K, 12000 kPa | – | 142.1
293.85 K, 12230 kPa | – | 143.2
293.85 K, 14330 kPa | – | 146.1
293.85 K, 14700 kPa | – | 146
298.15 K, 100 kPa | 1201.64 | –
298.15 K, 2000 kPa | 1202.53 | –
298.15 K, 4000 kPa | 1203.45 | –
298.15 K, 6000 kPa | 1204.39 | –
298.15 K, 8000 kPa | 1205.3 | –
298.15 K, 10000 kPa | 1206.22 | –
298.15 K, 12000 kPa | 1207.12 | –
298.15 K, 14000 kPa | 1208 | –
298.15 K, 20000 kPa | 1210.64 | –
298.15 K, 30000 kPa | 1214.97 | –
298.15 K, 40000 kPa | 1219.15 | –
298.15 K, 50000 kPa | 1223.24 | –
298.15 K, 60000 kPa | 1227.21 | –
303.15 K, 100 kPa | 1198.09 | –
303.15 K, 120 kPa | – | 78.1
303.15 K, 770 kPa | – | 80
303.15 K, 1680 kPa | – | 82.4
303.15 K, 2000 kPa | 1198.98 | –
303.15 K, 2700 kPa | – | 83.3
303.15 K, 4000 kPa | 1199.92 | –
303.15 K, 4170 kPa | – | 84.4
303.15 K, 6000 kPa | 1200.85 | –
303.15 K, 6240 kPa | – | 85.1
303.15 K, 6290 kPa | – | 85
303.15 K, 8000 kPa | 1201.78 | –
303.15 K, 8180 kPa | – | 88.3
303.15 K, 10000 kPa | 1202.7 | –
303.15 K, 10200 kPa | – | 89.8
303.15 K, 12000 kPa | 1203.62 | –
303.15 K, 12110 kPa | – | 91
303.15 K, 14000 kPa | 1204.52 | –
303.15 K, 14200 kPa | – | 92.5
303.15 K, 14290 kPa | – | 91.7
303.15 K, 20000 kPa | 1207.18 | –
303.15 K, 30000 kPa | 1211.54 | –
303.15 K, 40000 kPa | 1215.79 | –
303.15 K, 50000 kPa | 1219.9 | –
303.15 K, 60000 kPa | 1223.89 | –
308.15 K, 100 kPa | 1194.52 | –
308.15 K, 2000 kPa | 1195.44 | –
308.15 K, 4000 kPa | 1196.38 | –
308.15 K, 6000 kPa | 1197.34 | –
308.15 K, 8000 kPa | 1198.26 | –
308.15 K, 10000 kPa | 1199.2 | –
308.15 K, 12000 kPa | 1200.1 | –
308.15 K, 14000 kPa | 1201.03 | –
308.15 K, 20000 kPa | 1203.74 | –
308.15 K, 30000 kPa | 1208.15 | –
308.15 K, 40000 kPa | 1212.4 | –
308.15 K, 50000 kPa | 1216.54 | –
308.15 K, 60000 kPa | 1220.57 | –
313.15 K, 100 kPa | 1191.01 | –
313.15 K, 2000 kPa | 1191.92 | –
313.15 K, 4000 kPa | 1192.9 | –
313.15 K, 6000 kPa | 1193.86 | –
313.15 K, 8000 kPa | 1194.8 | –
313.15 K, 10000 kPa | 1195.75 | –
313.15 K, 12000 kPa | 1196.67 | –
313.15 K, 14000 kPa | 1197.1 | –
313.15 K, 20000 kPa | 1200.34 | –
313.15 K, 30000 kPa | 1204.81 | –
313.15 K, 40000 kPa | 1209.11 | –
313.15 K, 50000 kPa | 1213.28 | –
313.15 K, 60000 kPa | 1217.34 | –
313.45 K, 14310 kPa | – | 59.4
313.55 K, 120 kPa | – | 51.2
313.55 K, 710 kPa | – | 51.7
313.55 K, 1650 kPa | – | 52.3
313.55 K, 2690 kPa | – | 52.5
313.55 K, 4250 kPa | – | 53.4
313.55 K, 6260 kPa | – | 54.3
313.55 K, 8200 kPa | – | 54.9
313.55 K, 10200 kPa | – | 56.2
318.15 K, 100 kPa | 1187.48 | –
318.15 K, 2000 kPa | 1188.43 | –
318.15 K, 4000 kPa | 1189.42 | –
318.15 K, 6000 kPa | 1190.39 | –
318.15 K, 8000 kPa | 1191.39 | –
318.15 K, 10000 kPa | 1192.31 | –
318.15 K, 12000 kPa | 1193.27 | –
318.15 K, 14000 kPa | 1194.22 | –
318.15 K, 20000 kPa | 1196.98 | –
318.15 K, 30000 kPa | 1201.46 | –
318.15 K, 40000 kPa | 1205.83 | –
318.15 K, 50000 kPa | 1210.05 | –
318.15 K, 60000 kPa | 1214.15 | –
323.15 K, 100 kPa | 1184 | –
323.15 K, 2000 kPa | 1184.97 | –
323.15 K, 4000 kPa | 1185.97 | –
323.15 K, 6000 kPa | 1186.94 | –
323.15 K, 8000 kPa | 1187.91 | –
323.15 K, 10000 kPa | 1188.88 | –
323.15 K, 12000 kPa | 1189.84 | –
323.15 K, 14000 kPa | 1190.78 | –
323.15 K, 20000 kPa | 1193.6 | –
323.15 K, 30000 kPa | 1198.15 | –
323.15 K, 40000 kPa | 1202.55 | –
323.15 K, 50000 kPa | 1206.8 | –
323.15 K, 60000 kPa | 1210.94 | –
324.8 K, 630 kPa | – | 34.5
324.82 K, 120 kPa | – | 34.3
324.85 K, 1700 kPa | – | 34.8
324.85 K, 2590 kPa | – | 35.2
324.85 K, 4050 kPa | – | 35.3
324.85 K, 4260 kPa | – | 35.8
324.85 K, 6160 kPa | – | 36.5
324.85 K, 8160 kPa | – | 36.7
324.85 K, 10450 kPa | – | 37.5
324.85 K, 12130 kPa | – | 38.4
324.85 K, 14150 kPa | – | 39
